Earlier results as cited in publication PMC4844649, “A first-in-Asian phase 1 study to evaluate safety, pharmacokinetics and clinical activity of VS-6063, a focal adhesion kinase (FAK) inhibitor in Japanese patients with advanced solid tumors” (Cancer Chemotherapy and Pharmacology, 2016).
Where two headings read alike, the source gives them in different places.

Tests used:
[1] = tested on: advanced solid tumors; conditions: cited from earlier work
[2] = parameters: method as in earlier work; conditions: at the higher doses, phase 1 dose-escalation ref 11, 12; cited from earlier work
[3] = tested on: Tregs and CD8 + T cells in the tumor microenvironment; parameters: method as in PMID 26406376; conditions: squamous cell carcinoma model ref 17; cited from earlier work

In the case of `COc1cc(C(=O)NC2CCN(C)CC2)c(F)cc1Nc1ncc(C(F)(F)F)c(Oc2cccc3c2C(=O)N(C)C3)n1` [BI 853520], the objective radiographic responses ([1]; phase 1 ref 11, 12) is listed as “No objective radiographic responses” and the dose-limiting toxicities [2] is listed as “both proteinuria and fatigue were dose-limiting (Grade 3)”.
In the case of `CONC(=O)c1ccccc1Nc1cc(Nc2cc(C)nn2C(C)C)ncc1Cl` [GSK2256098], the objective radiographic responses ([1]; phase 1 ref 15) is listed as “No objective radiographic responses”.
In the case of `CNC(=O)c1ccccc1Nc1cc(Nc2ccc(N3CCOCC3)cc2OC)ncc1C(F)(F)F` [VS-4718], the “effect on Tregs and CD8 + T cell-mediated anti-tumor response” value [3] is given as “drives depletion of Tregs and promotes a CD8 + T cell-mediated anti-tumor response”.
For `CN(c1ncccc1CNc1nc(Nc2ccc3c(c2)CC(=O)N3)ncc1C(F)(F)F)S(C)(=O)=O` [PF-00562271], the objective radiographic responses ([1]; phase 1 ref 10) is given as “No objective radiographic responses”.
